How the values were obtained:
[1] = test system: OA-HACs with NKX3-2 knockdown; assay: NKX3-2 siRNA knockdown and peptide treatment, hypertrophy gene expression; assay type: cell-based, human; conditions: OA-HAC pool (n = 4 donors), then 100 nM peptide 24 h (Figure 5A); for chondrocyte hypertrophy-inhibiting bioactivity in control (scrambled siRNA) condition: 100 nM siRNA 24 h; for rescue of hypertrophy-inducing consequences of NKX3-2 knockdown: NKX3-2 siRNA 100 nM 24 h
Source text: A chondrocyte phenotypic consequence of exposure to peptides p[63−82] or p[113−132] is an overall attenuation of hypertrophy. Previously, we[17]^,[27] and others[29]^,[30] recognized NKX3-2 (BAPX1) as an important negative regulator of chondrocyte hypertrophy, and the hypertrophy-inhibiting action of BMP7 on OA-HACs is, at least in part, mediated via NKX3-2.[27] Taking into consideration that the ability to induce NKX3-2 expression was one of the screening criteria for the identification of the here-described, BMP7-derived peptides (Figures 2 and S2), we next investigated whether NKX3-2 is involved in the bioactivity of peptides p[63−82] and p[113−132]. By means of small interfering (si)RNA transfection, NKX3-2 expression was reduced in a pool of OA-HACs. […] Treatment of control conditions (scrambled siRNA) with peptide p[63−82] or p[113−132]confirmed the peptides’ chondrocyte hypertrophy-inhibiting bioactivity (Figure 5A).
Figure 5 Molecular characterization of peptides p[63−82] and p[113−132] (A) A pool of OA-HACs (n = 4 donors) was transfected with a scrambled siRNA or with an NKX3-2 siRNA (100 nM siRNA) and cultured for 24 h. Cultures were then exposed to peptide p[63−82] or p[113−132] (100 nM peptide). Samples were harvested 24 h later and analyzed for the expression of the indicated mRNAs (normalized to 28S rRNA). (B) SW1353 chondrocytic cells were transfected with BRE (SMAD1/5/8 reporter) or CAGA12 (SMAD2/3 reporter) firefly luciferase-reporter plasmids. A CMV-Gaussia plasmid was cotransfected as a transfection control. Cells were then cultured for 24 h and subsequently exposed to control, p[63−82], or p[113−132] for 8 h. Firefly and Gaussia bioluminescence were measured in cells and medium (respectively), and relative light units (RLUs) of firefly luciferase were normalized for the Gaussia luciferase signal. The normalized firefly luciferase signal of the control condition was set at 1, and peptide conditions were calculated relative to the control condition (FL/GL). Error bars represent mean ± SEM; statistical significance for peptide conditions versus siScrambled or siNKX3-2 (A) or control condition (B) as determined by unpaired two-tailed Student’s t test is represented as ∗p < 0.05, ∗∗p < 0.01, and ∗∗∗p < 0.001. […] An alanine-scanning bioactivity score (sum of the fold change gene expression of COL10A1, ALPL, MMP13, and COL2A1 plus NKX3-2 of the alanine-substituted peptides versus the wild-type p[63−82] peptide) was calculated for each alanine substitution in the amino acid sequence of peptide p[63−82] and is represented by the height of each letter on the y axis (data in Figure S4). […]

[2] = test system: BRE reporter (SMAD1/5/8 dependent) in SW1353 chondrocytic cells; assay: BRE firefly luciferase reporter assay; assay type: cell-based; conditions: 8 h peptide exposure, firefly normalized to Gaussia luciferase, relative to control (Figure 5B)
Description: Figure 5 Molecular characterization of peptides p[63−82] and p[113−132] (A) A pool of OA-HACs (n = 4 donors) was transfected with a scrambled siRNA or with an NKX3-2 siRNA (100 nM siRNA) and cultured for 24 h. Cultures were then exposed to peptide p[63−82] or p[113−132] (100 nM peptide). Samples were harvested 24 h later and analyzed for the expression of the indicated mRNAs (normalized to 28S rRNA). (B) SW1353 chondrocytic cells were transfected with BRE (SMAD1/5/8 reporter) or CAGA12 (SMAD2/3 reporter) firefly luciferase-reporter plasmids. A CMV-Gaussia plasmid was cotransfected as a transfection control. Cells were then cultured for 24 h and subsequently exposed to control, p[63−82], or p[113−132] for 8 h. Firefly and Gaussia bioluminescence were measured in cells and medium (respectively), and relative light units (RLUs) of firefly luciferase were normalized for the Gaussia luciferase signal. The normalized firefly luciferase signal of the control condition was set at 1, and peptide conditions were calculated relative to the control condition (FL/GL). Error bars represent mean ± SEM; statistical significance for peptide conditions versus siScrambled or siNKX3-2 (A) or control condition (B) as determined by unpaired two-tailed Student’s t test is represented as ∗p < 0.05, ∗∗p < 0.01, and ∗∗∗p < 0.001. […]

H-AAYYSEGESAFPLNSYMNAT-OH [p[63−82]]
chondrocyte hypertrophy-inhibiting bioactivity in control (scrambled siRNA) condition [1]: confirmed | rescue of hypertrophy-inducing consequences of NKX3-2 knockdown [1]: did not show rescue | BRE reporter activity [2]: induce

H-SVLYFDDSSNVILKKYRNMV-OH [p[113−132]]
chondrocyte hypertrophy-inhibiting bioactivity in control (scrambled siRNA) condition [1]: confirmed | rescue of hypertrophy-inducing consequences of NKX3-2 knockdown [1]: did not show rescue | BRE reporter activity [2]: induce

Source: PMC8022858, “Discovery of bone morphogenetic protein 7-derived peptide sequences that attenuate the human osteoarthritic chondrocyte phenotype” (Molecular Therapy. Methods & Clinical Development, 2021)
